Structures can show the parent of a compound that is named as a salt. Where two headings read alike, the source gives them in different places. Values belong to the compound of their own block, whether it stands above or below them.
Columns and labels:
[1] = Methanolysis of dimethyl sulfate, 1H NMR kinetics; format: physicochemical; settings: 65° C., 1.5 mole % DMS in dry methanol
Procedure: Solutions of 1.5 mole % DMS and methanol were heated in a sealed tube to 35° C. and the time-dependent NMR spectra were collected for these mixtures. […] Use of NMR data helped confirm the reaction mechanism proposed in Scheme 2.
The reaction proceeded more slowly at 35° C. but clearly confirms the formation of dimethyl ether (DME). The gradual downfield shift of the exchangeable OH resonance (4.8 ppm) supports the generation of a strong acid i.e., MMS (Scheme 5). Another set of duplicate experiments were performed under the reaction conditions at 65° C. (again spiking 1.5 mole % DMS into dry methanol with <0.01% water and no sulfuric acid) and monitoring the reaction for 60 minutes. This reaction was considered to be essentially irreversible under nominal plant process conditions since the reaction vessels are not pressurized and the resultant dimethyl ether would bubble out of solution.

[2] = Hydrolysis of dimethyl sulfate, water spiking, 1H NMR kinetics; format: physicochemical; settings: 65° C., water 10.5, 14.0, 17.7 mole % in DMS-methanol
Procedure: The hydrolysis rate of dimethyl sulfate was determined by spiking known amounts of water into a mixture of DMS and methanol. Water was spiked into DMS-methanol solutions at three different levels—10.5, 14.0, and 17.7 mole % equivalents. The reactions were monitored for 60 minutes at 65° C. and the DMS peak integrals obtained.
The rate constant for the hydrolysis of DMS (k−2) was derived by fitting all the data to a DynoChem model that used the time-dependant peak integral data.

[3] = high doses; cited from earlier work
[4] = system: Ehrlich solid tumor cells; settings: in mice; cited from earlier work
[5] = Formation of monomethyl sulfate from sulfuric acid and methanol, 1H NMR kinetics; format: physicochemical; settings: 65° C., dry methanol and concentrated sulfuric acid; ±7% RSD
Procedure: All ^1H NMR spectra were obtained in and referenced against DMSO-d6 at 2.5 ppm using a Varian 500 MHz NMR. Concentrated sulfuric acid, fumaric acid, and dimethyl fumarate were obtained from the Sigma-Aldrich Chemical Company. Authentic standards of MMS (Na salt) and DMS were also obtained from Sigma-Aldrich. For spiking identification purposes, an authentic sample of MMS was prepared by passing a methanolic solution of the commercially available sodium salt through Amberlite FPA 22 resin (H form, 10 molar equivalents), and concentrating to an oil on a flash evaporator.
All small scale reactions performed in the study were magnetically stirred and carried out using an insulated oil bath maintained at 65 deg±1° C. […]
Sampling of reactions involved removal of a minimum of 150-400 μL of reaction solution, addition to DMSO-d6 (lock solvent) as required to make up a 650 μL solution in each NMR tube. Samples were chilled in an ice/water bath, and analyzed within 5-10 minutes of their preparation. […]
Dry methanol (<0.01% water) was mixed with concentrated dry sulfuric acid and heated to 65° C. […] Equilibrium was reached within 1 hour, resulting in an essentially quantitative conversion of sulfuric acid to monomethyl sulfate. […] The second-order forward rate constant (k1) for the formation of MMS at 65° C. was determined to be 6.4×10^−5 L/mol-sec with a confidence interval of ±7% RSD.

[6] = cited from earlier work; for rate constant for the hydrolysis of MMS, extrapolated: at 25° C.
[7] = Hydrolysis of monomethyl sulfate, water spiking, 1H NMR; format: physicochemical
Procedure: The rate constant of this reaction was measured by spiking water into solutions containing MMS (1.5 mole %) and monitoring the heated, sealed, vessel by ^1H NMR for 45 hours. Water was spiked into the matrix at two different levels—6 mole % and 12 mole %. […] In order to develop the larger model, the MMS equilibrium constant K (k1/k−1) was assigned a value of 999:1 in favor of the forward reaction, thus conservatively defining k−1 as 6.4×10^−8 L/mol-sec.

serum proteins = settings: cited from earlier work
[8] = Lab crystallization experiments with different cooling rates, mean particle size; format: physicochemical; settings: isolated from the reaction mixture prior to milling
Procedure: In the current process the mixture was cooled from reaction temperature 65° C. to the end temperature 20-25° C. in about 8 hours, stirred for 1-2 hours, and filtered to isolate the product.
Table 2 highlights results from laboratory crystallization experiments with cooling rates chosen within manufacturing equipment capabilities.

[9] = Mean particle size before and after jet milling; format: physicochemical
Source text: These particles were milled to produce particles of a suitable size for consistent handling and uniformity for drug product processing. The target specification for particle size is ≧97% of the particles <250 μm. The dimethyl fumarate drug substance was milled consistently to meet this specification using a jet mill. […] It is evident that the milling operation is capable of producing a drug substance of suitable quality.

[10] = Particle size of dimethyl fumarate by laser diffraction during and after drying; format: physicochemical
Procedure: The particle sizes reported here are based on a measured distribution. In one embodiment, the particle sizes are measured using a Laser Diffraction technique that correlates light scattering to particle volume on which “effective length or effective diameter” is calculated. The distribution is based on a measurement of thousands of particles. Particles samples can be in dry form or in slurry. In one embodiment, the instrument used to determine particle size/distribution is a Beckman Coulter LS230 or a Malvern Mastersizer.
The effect of temperature, pressure, and drying time on particle size was also investigated. […] Development studies examined the extent of sublimation under the drying conditions employed in the manufacturing plant. The first 3 entries in Table 5 are lab samples collected after 7, 24, and 48 hours drying time. The result from the three lab samples confirms that drying has no effects on the particle size. The particle size of lab samples were also compared to two representative plant samples which were dried for 48 hours and 72 hours. There is no change in particle size during drying.

SMILES: COS(=O)(=O)OC [DMS, dimethyl sulfate]
rate constant for the methanolysis of DMS (k3) [1]: 4.1e-05 L/mol/s | rate constant for the hydrolysis of DMS (k−2) [2]: 0.00023 L/mol/s

SMILES: O=C(O)/C(O)=C(\O)C(=O)O [dihydroxy fumaric acid]
side effects and toxicity [3]: high toxicity

SMILES: O=C(O)/C=C/C(=O)O [fumaric acid]
growth of Ehrlich solid tumor cells [4]: impede the growth

SMILES: COS(=O)(=O)O [MMS, monomethyl sulfate]
second-order forward rate constant (k1) for the formation of MMS [5]: 6.4e-05 L/mol/s | equilibrium constant for the hydrolysis of monomethyl sulfate ([6]; T=100° C. to 150° C., sulfuric acid 1-4 M): 0.027 M⁻¹ | rate constant for the hydrolysis of MMS, extrapolated ([6]; 1M HCl, T=40° C. to 100° C.): 1.7e-08 M⁻¹ s⁻¹ | rate constant for the hydrolysis of MMS, extrapolated ([6]; pH=3 to 10, T=100° C. to 190° C.): 2.2e-11 M⁻¹ s⁻¹ | MMS level after water spiking ([7]; MMS 1.5 mole %, water 6 and 12 mole %, heated sealed vessel, 45 hours): virtually unchanged | hydrolysis rate constant k−1 ([7]; from K (k1/k−1) assigned 999:1, conservative): 6.4e-08 L/mol/s

SMILES: COC(=O)/C=C/C(=O)O [methyl hydrogen fumarate]
bound by serum proteins (serum proteins): 30%

Mean Particle Size ([8]; cooling rate 5° C./h): 475 μm | Mean Particle Size ([8]; cooling rate 8° C./h): 448 μm | Mean Particle Size ([8]; cooling rate 15° C./h): 475 μm | Mean Particle Size ([9]; after jet milling): 20-40 μm | Mean Particle Size ([9]; isolated from the dryer, before milling): 550-650 μm | Particle Size by Laser Diffraction, D10 ([10]; drying time 7 h (lab)): 328 μm | Particle Size by Laser Diffraction, D50 ([10]; drying time 7 h (lab)): 566 μm | Particle Size by Laser Diffraction, D90 ([10]; drying time 7 h (lab)): 850 μm | Particle Size by Laser Diffraction, D97 ([10]; drying time 7 h (lab)): 987 μm | Particle Size by Laser Diffraction, Mean ([10]; drying time 7 h (lab)): 524 μm | Particle Size by Laser Diffraction, D10 ([10]; drying time 24 h (lab)): 323 μm | Particle Size by Laser Diffraction, D50 ([10]; drying time 24 h (lab)): 562 μm | Particle Size by Laser Diffraction, D90 ([10]; drying time 24 h (lab)): 843 μm | Particle Size by Laser Diffraction, D97 ([10]; drying time 24 h (lab)): 979 μm | Particle Size by Laser Diffraction, Mean ([10]; drying time 24 h (lab)): 521 μm | Particle Size by Laser Diffraction, D10 ([10]; drying time 48 h (lab)): 340 μm | Particle Size by Laser Diffraction, D50 ([10]; drying time 48 h (lab)): 567 μm | Particle Size by Laser Diffraction, D90 ([10]; drying time 48 h (lab)): 845 μm | Particle Size by Laser Diffraction, D97 ([10]; drying time 48 h (lab)): 980 μm | Particle Size by Laser Diffraction, Mean ([10]; drying time 48 h (lab)): 535 μm | Particle Size by Laser Diffraction, D10 ([10]; drying time 48 h (plant)): 332 μm | Particle Size by Laser Diffraction, D50 ([10]; drying time 48 h (plant)): 561 μm | Particle Size by Laser Diffraction, D90 ([10]; drying time 48 h (plant)): 828 μm | Particle Size by Laser Diffraction, D97 ([10]; drying time 48 h (plant)): 956 μm | Particle Size by Laser Diffraction, Mean ([10]; drying time 48 h (plant)): 536 μm | Particle Size by Laser Diffraction, D10 ([10]; drying time 72 h (plant)): 327 μm | Particle Size by Laser Diffraction, D50 ([10]; drying time 72 h (plant)): 562 μm | Particle Size by Laser Diffraction, D90 ([10]; drying time 72 h (plant)): 834 μm | Particle Size by Laser Diffraction, D97 ([10]; drying time 72 h (plant)): 963 μm | Particle Size by Laser Diffraction, Mean ([10]; drying time 72 h (plant)): 524 μm
SMILES: COC(=O)/C=C/C(=O)OC [dimethyl fumarate]

SMILES: NC(=O)/C=C/C(N)=O [fumaramide]
side effects and toxicity [3]: high toxicity

SMILES: N#C/C=C/C#N [fumaronitrile]
side effects and toxicity [3]: high toxicity

From patent US9422226B2 (Biogen MA Inc., priority 2011, dated 2016)
